Experimental data reported in ChEMBL document CHEMBL5050844 (2019).

Key:
[1] = Induction of activation of human CD56+ CD3- NK cells co-cultured with human K562 cells in 1:1 ratio and assessed as increase in TNF-alpha secretion at 2.5 uM measured by ELISA assay; type: functional, Natural killer cell
[2] = Induction of anti-CD3 antibodies-stimulated human CD4+ T cell activation in immunocompetent mouse assessed fold increase in CD25 expression at 90 mg/kg, ip administered twice a day; type: functional; note: reference of the scale not given here
[3] = target: T1, E3 ubiquitin-protein ligase CBL-B (Homo sapiens, UniProt Q13191); experiment: Inhibition of N-terminal Avi-tagged human CBL-B (36 to 427 residues) incubated with 60 nM Src kinase for 1.5 hrs followed by incubation with fluorescently labeled UbcH5B-Ub for 1 hr and measured by TR-FRET assay; type: single protein
[4] = Induction of anti-CD3/CD28 antibodies-stimulated human CD4+ T cell activation at 10 uM assessed fold increase in cell proliferation measured by flow cytometry analysis; type: functional, T cell line
[5] = Induction of anti-CD3/CD28 antibodies-stimulated human T cell activation at 1.11 uM assessed fold increase in TNF-alpha secretion measured by ELISA assay; type: functional, T cell line
[6] = Induction of anti-CD3 antibodies-stimulated human T cell activation at 1.11 uM assessed fold increase in TNF-alpha secretion measured by ELISA assay; type: functional, T cell line; note: reference of the scale not given here
[7] = Induction of anti-CD3 antibodies-stimulated human CD8+ T cell activation in immunocompetent mouse assessed fold increase in CD25 expression at 180 mg/kg, po administered twice a day; type: functional; note: reference of the scale not given here
[8] = Induction of anti-CD3 antibodies-stimulated human exhausted T cell activation assessed fold increase in IFN-gamma secretion measured by ELISA assay; type: functional, T cell line; note: reference of the scale not given here
[9] = Induction of anti-CD3 antibodies-stimulated human CD4+ T cell activation in immunocompetent mouse assessed fold increase in CD25 expression at 135 mg/kg, po administered twice a day; type: functional; note: reference of the scale not given here
[10] = Induction of anti-CD3 antibodies-stimulated human CD8+ T cell activation at 10 uM assessed fold increase in cell proliferation measured by flow cytometry analysis; type: functional, T cell line; note: reference of the scale not given here
[11] = Induction of anti-CD3 antibodies-stimulated human CD8+ T cell activation at 1.11 uM assessed fold increase in CD69 expression measured by flow cytometry analysis; type: functional, T cell line; note: reference of the scale not given here
[12] = Induction of anti-CD3 antibodies-stimulated human CD8+ T cell activation in immunocompetent mouse assessed fold increase in CD25 expression at 90 mg/kg, ip administered thrice a day; type: functional; note: reference of the scale not given here
[13] = Induction of anti-CD3/CD28 antibodies-stimulated human CD8+ T cell activation at 10 uM assessed fold increase in CD69 expression measured by flow cytometry analysis; type: functional, T cell line
[14] = Induction of anti-CD3 antibodies-stimulated human CD4+ T cell activation in immunocompetent mouse assessed fold increase in CD25 expression at 90 mg/kg, po administered twice a day; type: functional; note: reference of the scale not given here
[15] = Induction of anti-CD3 antibodies-stimulated human CD8+ T cell activation in immunocompetent mouse assessed fold increase in CD25 expression at 135 mg/kg, po administered twice a day; type: functional; note: reference of the scale not given here
[16] = Induction of anti-CD3/CD28 antibodies-stimulated human T cell activation at 4 uM assessed fold increase in IL-2 secretion measured by ELISA assay; type: functional, T cell line
[17] = Induction of anti-CD3 antibodies-stimulated human T cell activation at 1.11 uM assessed fold increase in IFN-gamma secretion measured by ELISA assay; type: functional, T cell line; note: reference of the scale not given here
[18] = Induction of anti-CD3/CD28 antibodies-stimulated human anergic T cell activation at 1.11 uM assessed fold increase in IFN-gamma secretion measured by ELISA assay; type: functional, T cell line
[19] = Induction of anti-CD3/CD28 antibodies-stimulated human T cell activation at 10 uM assessed fold increase in IFN-gamma secretion measured by ELISA assay; type: functional, T cell line
[20] = target: T1, E3 ubiquitin-protein ligase CBL-B; experiment: Binding affinity towards N-terminal biotinylated Avi-tagged human CBL-B (36 to 427 residues) measured by surface plasmon resonance assay
[21] = Induction of allogenic human T cell activation at 3 uM assessed fold increase in cell proliferation; type: functional, T cell line
[22] = Induction of anti-CD3 antibodies-stimulated human CD8+ T cell activation in immunocompetent mouse assessed fold increase in CD25 expression at 90 mg/kg, po administered twice a day; type: functional; note: reference of the scale not given here
[23] = Induction of anti-CD3/CD28 antibodies-stimulated human T cell activation at 10 uM assessed fold increase in GM-CSF secretion measured by ELISA assay; type: functional, T cell line
[24] = Induction of anti-CD3 antibodies-stimulated human CD4+ T cell activation in immunocompetent mouse assessed fold increase in CD25 expression at 180 mg/kg, po administered twice a day; type: functional; note: reference of the scale not given here
[25] = Induction of anti-CD3/CD28 antibodies-stimulated human CD4+ T cell activation at 1.11 uM assessed fold increase in cell proliferation measured by flow cytometry analysis; type: functional, T cell line
[26] = Induction of activation of human CD56+ CD3- NK cells co-cultured with human K562 cells in 1:1 ratio and assessed as increase in TNF-alpha secretion at 1 uM measured by ELISA assay; type: functional, Natural killer cell
[27] = Induction of activation of human CD56+ CD3- NK cells co-cultured with human K562 cells in 5:1 ratio and assessed as increase in MIP1beta secretion at 1 uM measured by ELISA assay; type: functional, Natural killer cell
[28] = Induction of activation of human CD56+ CD3- NK cells co-cultured with human K562 cells in 1:1 ratio and assessed as increase in MIP1beta secretion at 1 uM measured by ELISA assay; type: functional, Natural killer cell
[29] = Induction of activation of human CD56+ CD3- NK cells co-cultured with human K562 cells in 1:1 ratio and assessed as increase in IFN-gamma secretion at 1 uM measured by ELISA assay; type: functional, Natural killer cell
[30] = Induction of activation of human CD56+ CD3- NK cells co-cultured with human K562 cells in 1:1 ratio and assessed as increase in MIP1beta secretion at 10 uM measured by ELISA assay; type: functional, Natural killer cell
[31] = Induction of activation of human CD56+ CD3- NK cells co-cultured with human K562 cells in 5:1 ratio and assessed as increase in IFN-gamma secretion at 10 uM measured by ELISA assay; type: functional, Natural killer cell
[32] = Induction of activation of human CD56+ CD3- NK cells co-cultured with human K562 cells in 5:1 ratio and assessed as increase in TNF-alpha secretion at 10 uM measured by ELISA assay; type: functional, Natural killer cell
[33] = Induction of activation of human CD56+ CD3- NK cells co-cultured with human K562 cells in 5:1 ratio and assessed as increase in IFN-gamma secretion at 1 uM measured by ELISA assay; type: functional, Natural killer cell
[34] = Induction of activation of human CD56+ CD3- NK cells co-cultured with human K562 cells in 5:1 ratio and assessed as increase in MIP1beta secretion at 10 uM measured by ELISA assay; type: functional, Natural killer cell
[35] = Induction of activation of human CD56+ CD3- NK cells co-cultured with human K562 cells in 5:1 ratio and assessed as increase in TNF-alpha secretion at 1 uM measured by ELISA assay; type: functional, Natural killer cell

T1 sequence (Q13191 whole entry, the tested form may be a part): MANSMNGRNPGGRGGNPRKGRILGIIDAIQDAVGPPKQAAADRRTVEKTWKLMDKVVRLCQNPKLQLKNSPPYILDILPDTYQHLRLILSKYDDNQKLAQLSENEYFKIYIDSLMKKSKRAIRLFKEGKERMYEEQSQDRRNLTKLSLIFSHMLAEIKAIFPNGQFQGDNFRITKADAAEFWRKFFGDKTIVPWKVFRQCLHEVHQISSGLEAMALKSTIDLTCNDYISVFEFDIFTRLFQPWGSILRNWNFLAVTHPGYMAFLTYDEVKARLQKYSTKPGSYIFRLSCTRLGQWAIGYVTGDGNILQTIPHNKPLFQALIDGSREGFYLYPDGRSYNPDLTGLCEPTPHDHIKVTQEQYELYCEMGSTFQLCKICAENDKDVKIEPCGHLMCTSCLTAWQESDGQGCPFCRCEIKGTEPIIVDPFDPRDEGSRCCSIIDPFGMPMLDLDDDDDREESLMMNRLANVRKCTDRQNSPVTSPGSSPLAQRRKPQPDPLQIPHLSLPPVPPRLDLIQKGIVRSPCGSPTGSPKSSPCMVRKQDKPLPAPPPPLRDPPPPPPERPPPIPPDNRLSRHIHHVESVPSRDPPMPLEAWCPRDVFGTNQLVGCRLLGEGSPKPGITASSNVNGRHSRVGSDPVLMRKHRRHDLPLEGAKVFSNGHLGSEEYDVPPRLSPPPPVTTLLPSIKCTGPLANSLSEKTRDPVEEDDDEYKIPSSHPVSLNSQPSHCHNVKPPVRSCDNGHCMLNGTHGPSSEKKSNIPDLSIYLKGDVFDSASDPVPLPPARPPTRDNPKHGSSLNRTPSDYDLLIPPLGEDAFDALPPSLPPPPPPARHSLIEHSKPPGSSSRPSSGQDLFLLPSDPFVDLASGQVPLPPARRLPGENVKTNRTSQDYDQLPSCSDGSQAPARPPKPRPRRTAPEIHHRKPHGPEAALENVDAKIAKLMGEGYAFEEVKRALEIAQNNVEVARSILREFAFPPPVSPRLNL

Row | Compound | fold change (FC) [1] | IC50 [3] [nM] | fold change (FC) [4] | fold change (FC) [5] | fold change (FC) [6] | fold change (FC) [8] | fold change (FC) [10] | fold change (FC) [11] | fold change (FC) [13] | fold change (FC) [16] | fold change (FC) [17] | fold change (FC) [18] | fold change (FC) [19] | fold change (FC) [21] | fold change (FC) [23] | fold change (FC) [25] | fold change (FC) [26] | fold change (FC) [27] | fold change (FC) [28] | fold change (FC) [29] | other results
1 | Cc1cc(C(=O)Nc2cccc(C3(Cc4nncn4C)COC3)c2)nc(C2CC2)n1 | 2.01 | < 100 | >4 | 2.01 | 1.51 | 1.41 | >4 | 1.201 | 1.201 | >=7.5 | 2.01 | 2.51 | >4 | <=2 | >4 | >4 |  |  |  |  | fold change (FC) [2]: 1; fold change (FC) [7]: 1; fold change (FC) [9]: 1.51; fold change (FC) [12]: 1; fold change (FC) [14]: 1; fold change (FC) [15]: 1; Kd [20]: < 100 nM; fold change (FC) [22]: 1; fold change (FC) [24]: 1.51
2 | Cn1cnnc1C(F)(F)[C@](C)(F)c1cccc(N2Cc3c(cc(C(=O)N4CC[C@H](O)C4)cc3C(F)(F)F)C2=O)c1 | 1.01 | < 100 | >4 | <=1.5 | 2.01 | <=1.4 | >4 | <=1.2 | 1.201 | >=7.5 | <=2 | <=2.5 | 2.01 | <=2 | 2.01 | 3.01 | 1.01 | <=1 | <=1 | <=1 | fold change (FC) [30]: <=1; fold change (FC) [31]: 1.01; fold change (FC) [32]: 1.01; fold change (FC) [33]: <=1; fold change (FC) [34]: 1.01; fold change (FC) [35]: 1.01
3 | Cc1cc(C(=O)Nc2cccc([C@H](C)Cc3nncn3C)c2)nc(C2CC2)n1 | 2.01 | < 100 | >4 | 2.01 | 1.51 | 1.41 | >4 | <=1.2 | 1.201 | >=7.5 | 2.01 | <=2.5 | >4 | <=2 | >4 | <=2 | 2.01 | 2.01 | 1.01 | 2.01 | fold change (FC) [7]: 1; fold change (FC) [9]: 1; fold change (FC) [12]: 1; fold change (FC) [30]: 2.01; fold change (FC) [14]: 1; fold change (FC) [15]: 1; fold change (FC) [31]: >=5; fold change (FC) [32]: >=5; fold change (FC) [33]: 2.01; Kd [20]: < 100 nM; fold change (FC) [34]: 2.01; fold change (FC) [35]: 2.01; fold change (FC) [24]: 1.51
4 | C[C@H](Cc1nncn1C)c1cccc(N2Cc3c(cccc3C(F)(F)F)C2=O)c1.Cl | 1.01 | < 100 | 3.01 | <=1.5 | <=1.5 | <=1.4 | <=2 | <=1.2 | 1.201 | 5 | <=2 | 2.51 | >4 | <=2 | 1.51 | <=2 | <=1 | <=1 | <=1 | 1.01 | fold change (FC) [2]: 1; fold change (FC) [30]: 1.01; fold change (FC) [31]: >=5; fold change (FC) [32]: <=1; fold change (FC) [33]: 1.01; fold change (FC) [34]: 1.01; fold change (FC) [22]: <1; fold change (FC) [35]: <=1
5 | Cn1cnnc1CC1(c2cccc(N3Cc4c(cc(CN5CCC6(CC6)C5)cc4C(F)(F)F)C3=O)c2)COC1 | >=5 | < 100 | >4 | 2.01 | 2.01 | <=1.4 | >4 | 1.401 | 1.201 |  | >4 | 2.51 | >4 | >3 | >4 | >4 |  |  |  |  | fold change (FC) [2]: 1; fold change (FC) [7]: 1; fold change (FC) [9]: 1.51; fold change (FC) [12]: 1; fold change (FC) [14]: 1; fold change (FC) [15]: 1; fold change (FC) [22]: 1; fold change (FC) [24]: 2.01
6 | C[C@H](Cc1nncn1C)c1cccc(N2Cc3c(cc(CN4CC[C@H](F)C4)cc3C(F)(F)F)C2=O)c1 | >=5 | < 100 | >4 | 2.01 | 2.01 | >1.61 | >4 | 1.401 | 1.201 | >=7.5 | 3.01 | >4.01 | >4 | 2.01 | >4 | >4 | 2.01 | 1.01 | 1.01 | 2.01 | fold change (FC) [30]: 1.01; fold change (FC) [31]: >=5; fold change (FC) [32]: >=5; fold change (FC) [33]: 2.01; Kd [20]: < 100 nM; fold change (FC) [34]: 1.01; fold change (FC) [35]: 2.01
